Laboratory results published in ChEMBL document CHEMBL1201862, “PubChem BioAssay data set” (2004).
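Where inhibition never reached the appropriate level, the endpoint shown equals the highest concentration tested. Otherwise, values were interpolated linearly from a five-concentration, 48-hour dose response in 96-well plates. Abbreviation: GI50, concentration required for 50% inhibition of growth.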 Active and inactive are the calls of the source. Cut-off read from the data, not from the text of the source: active = GI50 up to about 1.1 µM and inactive = higher.

How the values were obtained:
Experiment in all cases: NCI tumour cell line growth inhibition, 48 h
EKVX = tested on: EKVX
IGROV-1 = tested on: IGROV-1
A549 = tested on: A549
SN12C = tested on: SN12C
NCI-H522 = tested on: NCI-H522
SF-268 = tested on: SF-268
HCC 2998 = tested on: HCC 2998
SNB-19 = tested on: SNB-19
COLO 205 = tested on: COLO 205
LOX IMVI = tested on: LOX IMVI
NCI/ADR-RES = tested on: NCI/ADR-RES
SR = tested on: SR
RPMI-8226 = tested on: RPMI-8226
TK-10 = tested on: TK-10
786-0 = tested on: 786-0
UO-31 = tested on: UO-31
NCI-H226 = tested on: NCI-H226
OVCAR-3 = tested on: OVCAR-3
MCF7 = tested on: MCF7
MDA-MB-435 = tested on: MDA-MB-435

Compound	GI50 (EKVX)	GI50 (IGROV-1)	GI50 (A549)	GI50 (SN12C)	GI50 (NCI-H522)	GI50 (SF-268)	GI50 (HCC 2998)	GI50 (SNB-19)	GI50 (COLO 205)	GI50 (LOX IMVI)	GI50 (NCI/ADR-RES)	GI50 (SR)	GI50 (RPMI-8226)	GI50 (TK-10)	GI50 (786-0)	GI50 (UO-31)	GI50 (NCI-H226)	GI50 (OVCAR-3)	GI50 (MCF7)	GI50 (MDA-MB-435)
Clc1ccc(C2C3COc4ccccc4C3=NN2c2ccccc2)cc1 (stereo not given)	> 100 µM (inactive)	> 69 µM (inactive)	> 100 µM (inactive)	43.6 µM (inactive)	17.8 µM (inactive)	44.7 µM (inactive)	> 100 µM (inactive)	> 46.9 µM (inactive)	> 100 µM (inactive)	7.19 µM (inactive)	29.7 µM (inactive)	0.198 µM (active)	2.1 µM (inactive)	> 100 µM (inactive)	> 29.6 µM (inactive)	> 100 µM (inactive)	30 µM (inactive)	> 57.3 µM (inactive)	3.84 µM (inactive)	36.5 µM (inactive)
CCOP(=O)(OCC)/C(C#N)=C/c1[nH]cnc1C	> 100 µM (inactive)	> 100 µM (inactive)	> 100 µM (inactive)	> 100 µM (inactive)	> 100 µM (inactive)	> 100 µM (inactive)	> 100 µM (inactive)	> 100 µM (inactive)	> 100 µM (inactive)	> 100 µM (inactive)	> 100 µM (inactive)	> 100 µM (inactive)	> 100 µM (inactive)	> 100 µM (inactive)	> 100 µM (inactive)	> 100 µM (inactive)	> 100 µM (inactive)	> 100 µM (inactive)	> 100 µM (inactive)	> 100 µM (inactive)
N#Cc1c(-c2ccccc2)cc(Nc2ccc(Cl)cc2)n2c1nc1ccccc12	1.52 µM (inactive)	1.36 µM (inactive)	1.71 µM (inactive)	2.28 µM (inactive)	1.91 µM (inactive)	3.71 µM (inactive)	3.78 µM (inactive)	2.93 µM (inactive)	1.74 µM (inactive)	3.75 µM (inactive)	2.44 µM (inactive)	2.73 µM (inactive)	1.22 µM (inactive)	4.45 µM (inactive)	2.62 µM (inactive)	2.49 µM (inactive)	4.45 µM (inactive)	1.85 µM (inactive)	3.48 µM (inactive)	2.99 µM (inactive)
Cc1cc(=O)oc2c(C)c3oc(CBr)cc3cc12	26.4 µM (inactive)	16.8 µM (inactive)	17.3 µM (inactive)	19.5 µM (inactive)	15.2 µM (inactive)	19.5 µM (inactive)	15.8 µM (inactive)	29 µM (inactive)	18.4 µM (inactive)	15.3 µM (inactive)	19.4 µM (inactive)	33 µM (inactive)	12.2 µM (inactive)	19.9 µM (inactive)	16.3 µM (inactive)	15.9 µM (inactive)	15.5 µM (inactive)	35.7 µM (inactive)	25.2 µM (inactive)	18.2 µM (inactive)
Cc1[nH]c2ccccc2c1/C=N/c1ccc(/N=C/c2c(C)[nH]c3ccccc23)cc1	38.9 µM (inactive)	49.9 µM (inactive)	80 µM (inactive)	61.2 µM (inactive)	17.5 µM (inactive)	50 µM (inactive)	36.9 µM (inactive)	61.9 µM (inactive)	12.9 µM (inactive)	19.1 µM (inactive)	80.5 µM (inactive)	19.2 µM (inactive)	18.3 µM (inactive)	90.4 µM (inactive)	18.8 µM (inactive)	77.4 µM (inactive)	14 µM (inactive)	41 µM (inactive)	16.5 µM (inactive)	19.7 µM (inactive)
COC1=CCC2=C(CCN(C(=O)C3CC3)C2Cc2ccc(OC)c(O)c2)C1 (stereo not given)	47.1 µM (inactive)	52 µM (inactive)	63.4 µM (inactive)	49.3 µM (inactive)	28.8 µM (inactive)	51.1 µM (inactive)	35.1 µM (inactive)	> 100 µM (inactive)	51.5 µM (inactive)	86.7 µM (inactive)	19 µM (inactive)	4.8 µM (inactive)	34.2 µM (inactive)	67.1 µM (inactive)	92.9 µM (inactive)	> 100 µM (inactive)	89.3 µM (inactive)	45.4 µM (inactive)	33.2 µM (inactive)	23.9 µM (inactive)
